Source: patent publication US10195216B1, “Antimicrobial activity and oil compositions of Costus speciosus (KOEN)” (King Abdulaziz University, priority 2017, dated 2019)

Key:
M. gypseum = assay: agar disc diffusion, inhibition zone; format: cell-based, Microsporum gypseum; conditions: diosgenin at 1.25 m
Protocol: (§1) M. gypseum, M. canis, C. albicans and C. tropicalis isolates were obtained from King Faisal Specialist Hospital & Research Centre-Jeddah, Saudi Arabia. They were cultured on sabaroud dextrose agar media (Oxoid CM 41) at 25° C. Antimicrobial activities of essential oils and plant extracts of Indian Costus. About 0.5 g of the testing compound was dissolved in 1.25 ml of a solvent (chloroform, ethanol and methanol) and it was cultured in sabaroud dextrose agar media and blood agar media using the agar disc diffusion method. Each media used were inoculated with 1 ml from a suspension of M. gypseum, M. canis and C. albicans for sabaroud dextrose agar and P. aeruginosa and S. aureus for blood agar. The fungi and yeast were incubated at 25° C. for 8 days, and 48 hours respectively and then tested at 37° C. for 24 hours. After that, the diameter of inhibition zones was measured in millimeters; Baker F J, Breach M R. Medical Microbiological Techniques, Butterworths 1980; Hasenekoglu H. Laboratory techniques for micro fungi. Ataturk University. Erzurum 1990 (both incorporated by reference).

C. albicans = assay: agar disc diffusion, inhibition zone; format: cell-based, Candida albicans; conditions: same extract concentrations
Protocol: as §1

C. tropicalis = assay: agar disc diffusion, inhibition zone; format: cell-based, Candida tropicalis; conditions: same extract concentrations
Protocol: as §1

Row | melting point | SMILES | antimicrobial activity in words (M. gypseum) | antimicrobial activity in words (C. albicans) | antimicrobial activity in words (C. tropicalis)
1 | – | C[C@@H]1CC[C@@]2(OC1)O[C@H]1C[C@H]3[C@@H]4CC=C5C[C@@H](O)CC[C@]5(C)[C@H]4CC[C@]3(C)[C@H]1[C@@H]2C [Indian Costus diosgenin, (3β,25R)-spirost-5-en-3-ol] | effective | not as effective | not as effective
2 | 195 to 200 °C | CC1CC[C@@]2(OC1)O[C@H]1C[C@H]3[C@@H]4CC5OC56CCCC[C@]6(C)[C@H]4CC[C@]3(C)[C@H]1[C@@H]2C (stereo partly shown) [diosgenin epoxide, 5,6-Epoxyspirostane] | – | – | –
